Like-named read-outs stand apart in the source and are kept apart here.
Experiments:
[1] = patients with severe hepatic impairment; cited from earlier work
clinical = details: human, in vivo, po, Tmax median treatment difference
Description: (§1) Subjects with chronic, stable, severe HI with features of cirrhosis due to any etiology were enrolled, and the Child-Pugh scale was used to classify the severity of liver disease. The scale employs 5 clinical measures of liver disease. Each measure is scored 1 to 3, with 3 indicating most severe derangement. Subjects' scores of 10 to 15 on this scale are classified as having severe hepatic impairment.
(§2) The control subjects were matched in a 1:1 ratio to subjects with severe hepatic impairment for age, body mass index (BMI), and sex variables.

[2] = Post-hoc analysis of pooled data of 343 patients: clearance by hepatic function; format: in vivo, human; details: pooled data of 343 patients (284 normal, 53 mild HI, 6 moderate HI)
Description: As per the current avapritinib labeling, no dose adjustment is recommended for patients with mild or moderate HI.

[3] = Clinical study BLU-285-0107: single 100 mg oral dose, severe hepatic impairment vs matched control subjects, plasma PK; details: single oral 100 mg; for CL/F GeoMean / AUC(0-t) / AUC(0-inf) / Cmax / Tmax / Vd/F / half-life: total plasma avapritinib; for CLu/F GeoMean / Cumax GeoMean / AUC: unbound plasma avapritinib; for AUC(0-t) / AUC(0-inf) / AUC / Cmax / Tmax / Vd/F / half-life: human, plasma, po, 100 mg; for AUC(0-inf): AUC0-∞ GeoMean; for Cmax: Cmax GeoMean; for Tmax: Tmax median; for Vd/F: Vz/F GeoMean; for half-life: t1/2 arithmetic mean;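 as to all read-outs here: severe hepatic impairment meant chronic stable cirrhosis with a Child-Pugh score of 10–15, and each such subject was paired one-to-one with a control of similar age, BMI and sex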
Description: as §1, §2

[4] = cited from earlier work

CCOc1cc2ncc(C#N)c(Nc3ccc(OCc4ccccn4)c(Cl)c3)c2cc1NC(=O)/C=C/CN(C)C [neratinib]
exposure (AUC) increased [1]: 181%
exposure (Cmax) increased [1]: 173%

Cn1cc(-c2cc3c(N4CCN(c5ncc([C@@](C)(O)c6ccc(F)cc6)cn5)CC4)ncnn3c2)cn1 [Metabolite B]
Tmax (clinical): 80 h

Cn1cc(-c2cc3c(N4CCN(c5ncc([C@@](C)(N)c6ccc(F)cc6)cn5)CC4)ncnn3c2)cn1 [Avapritinib, (S)-1-(4-fluorophenyl)-1-(2-(4-(6-(1-methyl-1H-pyrazol-4-yl)pyrrolo [2,1-f][1,2,4]triazin-4-yl)piperazin-yl)pyrimidin-5-yl)ethan-1-amine]
clearance between patients with normal liver function, mild HI and moderate HI [2]: similar
CL/F GeoMean ([3]; Matched Control): 15.21 L/h
CLu/F GeoMean ([3]; Matched Control): 1534 L/h
Cumax GeoMean ([3]; Matched Control): 1.197 ng/mL
CL/F GeoMean ([3]; Severe HI): 12.72 L/h
CLu/F GeoMean ([3]; Severe HI): 950.6 L/h
Cumax GeoMean ([3]; Severe HI): 1.293 ng/mL
AUC(0-t) ([3]; AUC0-24 GeoMean, Matched Control): 1610 ng·h/mL
AUC(0-t) ([3]; AUC0-24 GeoMean, Severe HI): 1370 ng·h/mL
AUC(0-t) ([3]; AUC0-240 GeoMean, Matched Control): 6030 ng·h/mL
AUC(0-t) ([3]; AUC0-240 GeoMean, Severe HI): 6500 ng·h/mL
AUC(0-inf) ([3]; Matched Control): 6570 ng·h/mL
AUC(0-inf) ([3]; Severe HI): 7860 ng·h/mL
AUC ([3]; AUCu0-24 GeoMean, Matched Control): 15.9 ng·h/mL
AUC ([3]; AUCu0-24 GeoMean, Severe HI): 18.3 ng·h/mL
AUC ([3]; AUCu0-240 GeoMean, Matched Control): 59.8 ng·h/mL
AUC ([3]; AUCu0-240 GeoMean, Severe HI): 87 ng·h/mL
AUC ([3]; AUCu0-∞ GeoMean, Matched Control): 65.2 ng·h/mL
AUC ([3]; AUCu0-∞ GeoMean, Severe HI): 105 ng·h/mL
Cmax ([3]; Matched Control): 121 ng/mL
Cmax ([3]; Severe HI): 96.6 ng/mL
Tmax ([3]; Matched Control): 2.25 h
Tmax ([3]; Severe HI): 1.5 h
Vd/F ([3]; Matched Control): 1330 L
Vd/F ([3]; Severe HI): 1710 L
half-life ([3]; Matched Control): 64.1 h
half-life ([3]; Severe HI): 96.6 h

Cn1cc(-c2cc3c(N4CCN(c5ncc([C@](C)(O)c6ccc(F)cc6)cn5)CC4)ncnn3c2)cn1 [Metabolite A]
Tmax (clinical): 14.1 h

N#Cc1ccccc1-c1cc(-c2ccccn2)cn(-c2ccccc2)c1=O [perampanel]
AUC higher compared to normal ([4]; patients with mild HI): 50%
AUC higher compared to normal ([4]; patients with moderate HI): 2.5 fold
